Test results from patent publication US7544707B2, “Bicyclic derivatives as PPAR modulators” (Eli Lilly and Company, priority 2003, dated 2009).

| Structure (SMILES) | melting point |
| --- | --- |
| CCc1cc(SCc2cccc3nn(-c4ccc(C(F)(F)F)cc4)cc23)ccc1OCC(=O)O [Example 27, 2-Ethyl-4-[2-(4-trifluoromethylphenyl)-2H-indazol-4-ylmethylsufanyl]phenoxyacetic Acid] | 65 to 70 °C |
| Cc1cc(SC(CCC(F)(F)F)c2cccc3c2cnn3-c2ccc(C(F)(F)F)cc2)ccc1OC(C)(C)C(=O)O (racemic) [Example 88, (+/−)-2-Methyl-2-(2-methyl-4-{4,4,4-trifluoro-1-[1-(4-trifluoromethylphenyl)-1H-indazol-4-yl]butylsulfanyl}phenoxy)propionic Acid] | 205 to 210 °C |
| Cc1cc(SCc2ccc3cn(-c4ccc(C(F)(F)F)cc4)nc3c2)ccc1OC(C)(C)C(=O)O [Example 53, 2-Methyl-2-{2-methyl-4-[2-(4-trifluoromethylphenyl)-2H-indazol-6-ylmethylsulfanyl]phenoxy}propionic Acid] | 116 to 118 °C |
| Cc1cc(SCc2cccc3cnn(-c4ccc(C(F)(F)F)cc4)c23)ccc1CCC(=O)O [Example 33, 3-{2-Methyl-4-[1-(4-trifluoromethylphenyl)-1H-indazol-7-ylmethylsulfanyl]phenyl}propionic Acid] | 120 to 123 °C |
| Cc1cc(OC(CCC(F)(F)F)c2cccc3c2cnn3-c2ccc(C(F)(F)F)cc2)ccc1OC(C)(C)C(=O)O (racemic) [Example 87, (+/−)-2-Methyl-2-(2-methyl-4-{4,4,4-trifluoro-1-[1-(4-trifluoromethylphenyl)-1H-indazol-4-yl]butoxy}phenoxy)propionic Acid] | 218 to 222 °C |
| CC(C)(Sc1ccc(OC(CCC(F)(F)F)c2cccc3c2cnn3-c2ccc(C(F)(F)F)cc2)cc1)C(=O)O (racemic) [Example 89, (+/−)-2-Methyl-2-(4-{4,4,4-trifluoro-1-[1-(4-trifluoromethylphenyl)-1H-indazol-4-yl]butoxy}phenylsulfanyl)propionic Acid] | > 260 °C |

Other lines, results leading:

| melting point | Structure (SMILES) |
| --- | --- |
| 86 to 88 °C | CC(Oc1ccc(OC(C)(C)C(=O)O)cc1)c1cccc2nn(-c3ccc(C(F)(F)F)cc3)cc12 (racemic) [Example 75, (+/−)-2-Methyl-2-(4-{1-[2-(4-trifluoromethylphenyl)-2H-indazol-4-yl]ethoxy}phenoxy)propionic Acid] |
| 141 to 143 °C | Cc1cc(SCCc2cccc3cn(-c4ccc(C(F)(F)F)cc4)nc23)ccc1OC(C)(C)C(=O)O [Example 49, 2-Methyl-2-(2-methyl-4-{2-[2-(4-trifluoromethylphenyl)-2H-indazol-7-yl]ethylsulfanyl}phenoxy)propionic Acid] |
| 165 to 167 °C | Cc1cc(OCc2cccc3cn(-c4ccc(C(F)(F)F)cc4)nc23)ccc1OC(C)(C)C(=O)O [Example 37, 2-Methyl-2-{2-methyl-4-[2-(4-trifluoromethylphenyl)-2H-indazol-7-ylmethoxy]phenoxy}propionic Acid] |
| 122 to 124 °C | CC(C)(Oc1ccc(OCCc2cccc3cn(-c4ccc(C(F)(F)F)cc4)nc23)cc1)C(=O)O [Example 47, 2-Methyl-2-(4-{2-[2-(4-trifluoromethylphenyl)-2H-indazol-7-yl]ethoxy}phenoxy)propionic Acid] |
| 128 to 130 °C | CC(C)(Oc1ccc(OCc2cccc3c2cnn3-c2ccc(C(F)(F)F)cc2)cc1)C(=O)O [Example 81, 2-Methyl-2-{4-[1-(4-trifluoromethylphenyl)-1H-indazol-4-ylmethoxy]phenoxy}propionic Acid] |
| 176 to 178 °C | CC(C)(Oc1ccc(SCc2ccc3cn(-c4ccc(C(F)(F)F)cc4)nc3c2)cc1)C(=O)O [Example 54, 2-Methyl-2-{4-[2-(4-trifluoromethylphenyl)-2H-indazol-6-ylmethylsulfanyl]phenoxy}propionic Acid] |
| 130 to 132 °C | CC(Sc1ccc(OC(C)(C)C(=O)O)cc1)c1ccc2cn(-c3ccc(C(F)(F)F)cc3)nc2c1 (racemic) [Example 59, (+/−)-2-Methyl-2-(4-{1-[2-(4-trifluoromethylphenyl)-2H-indazol-6-yl]ethylsulfanyl}phenoxy)propionic Acid] |
